Experimental findings from patent publication US9670204B2, “Compounds and pharmaceutical compositions thereof for the treatment of inflammatory disorders” (Galapagos NV, priority 2013, dated 2017) are described below.

The structures appear in SMILES notation.

In the test the target is hENPP2 (UniProtKB/SwissProt Q13822) (Homo sapiens (Human), UniProt Q13822). The test is described as follows: hENPP2 biochemical assay, LPC as substrate. The conditions noted are these: LPC (palmitoyl 16:0) as substrate. The protocol: The principle of the assay consists in quantifying the released choline with an enzymatic method using choline oxidase and peroxidase. Choline oxydation by choline oxydase releases betaine and peroxide. The latter is quantified in presence of HRP that converts the peroxide detection agent TOOS and 4-aminoantipyrine into quinoneimine dye. The appearance of quinoneimine dye is measured spectrophotometrically at 555 nm and is proportional to the amount of choline released by ENPP2. Inhibition of ENPP2 will result in a decrease of the signal.
Compound IC50 values are determined in a hENPP2 (UniProtKB/SwissProt Sequence ref Q13822) biochemical assay using LPC as substrate.
The enzyme is diluted in 50 mM Tris-HCl pH 8.5, 500 mM NaCl, 5 mM KCl, 10 mM CaCl2, 0.1% fatty acid free BSA in a total volume of 10 μL. the reaction is started by the addition of 10 μL of 150 μM LPC (palmitoyl 16:0) diluted in the same buffer as described above and the mixture is incubated at 37° C. for 30 min. The reaction is terminated and choline quantified by the addition of a 25 μL of a mixture containing 0.6 U/mL of choline oxidase, 0.6 U/mL of peroxydase, 1.8 mM TOOS, 1.2 mM amino-antipyrine, 20 mM EGTA (stop-developer solution) diluted in the buffer described above. […] is read on the Envision after an incubation of 30 min at room temperature (Excitation 555 nm, excitation light=70%).
Usually IC50 stands for the concentration needed to halve the response being measured. In turn, `CCc1nc2ccc(N3CCN(CC(=O)N4CC(F)(F)C4)CC3)cn2c1N(C)c1nc(-c2ccc(F)cc2)cs1` [Compound 29, 1-(3,3-difluoroazetidin-1-yl)-2-(4-(2-ethyl-3-((4-(4-fluorophenyl)thiazol-2-yl)(methyl)amino)-imidazo[1,2-a]pyridin-6-yl)piperazin-1-yl)ethanone] yielded a concentration for half-maximal inhibition (IC50) of 100 to 500 nM.
`CCc1nc2ccc(C3CCN(C[C@@H]4CNC(=O)O4)CC3)cn2c1N(C)c1nc(-c2ccc(F)cc2)cs1` [Compound 197, (S)-5-((4-(2-ethyl-3-((4-(4-fluorophenyl)thiazol-2-yl)(methyl)amino)imidazo[1,2-a]pyridin-6-yl)piperidin-1-yl)methyl)oxazolidin-2-one] displayed a concentration for half-maximal inhibition (IC50) above 1000 nM.
For `CCc1nc2ccc(C3CCN(C(=O)CNC)CC3)cn2c1N(C)c1nc(-c2ccc(F)cc2)cs1` [Compound 127, 1-(4-(2-ethyl-3-((4-(4-fluorophenyl)thiazol-2-yl)(methyl)amino)imidazo[1,2-a]pyridin-6-yl)piperidin-1-yl)-2-(methylamino)ethanone] the value was 500 to 1000 nM; for `CCc1nc2ccc(C3CCN(CC(=O)N4CC(CO)C4)CC3)cn2c1N(C)c1nc(-c2ccc(F)cc2)c(CO)s1` [Compound 152], 500 to 1000 nM.
`CCc1nc2ccc(C3CCN(CC(=O)N4CCCC4)CC3)cn2c1N(C)c1nc(-c2ccc(F)cc2)c(CO)s1` [Compound 151, 2-(4-(2-ethyl-3-((4-(4-fluorophenyl)-5-(hydroxymethyl)thiazol-2-yl)(methyl)amino)imidazo[1,2-a]pyridin-6-yl)piperidin-1-yl)-1-(pyrrolidin-1-yl)ethanone] displayed an IC50 of 500 to 1000 nM.
The same measure for `CCc1nc2ccc(N3CCN(C(=O)C4CC(=O)N(Cc5ccccc5)C4)CC3)cn2c1N(C)c1nc(-c2ccc(F)cc2)cs1` (stereo not shown) [Compound 205, 1-Benzyl-4-[4-(2-ethyl-3-{[4-(4-fluoro-phenyl)-thiazol-2-yl]-methyl-amino}-imidazo[1,2-a]pyridin-6-yl)-piperazine-1-carbonyl]-pyrrolidin-2-one]: 500 to 1000 nM.
For `CCc1nc2ccc(C3CCN(C(=O)CN(C)C)CC3)cn2c1N(C)c1nc(-c2ccc(F)cc2)c(CO)s1` [Compound 153, 2-(dimethylamino)-1-(4-(2-ethyl-3-((4-(4-fluorophenyl)-5-(hydroxymethyl)thiazol-2-yl)(methyl)amino)imidazo[1,2-a]pyridin-6-yl)piperidin-1-yl) ethanone] the value was 500 to 1000 nM; for `CCc1nc2ccc(N3CCN(CC(=O)N4CCC4)CC3)cn2c1N(C)c1nc(-c2ccc(F)cc2)cs1` [Compound 30, 1-(azetidin-1-yl)-2-(4-(2-ethyl-3-((4-(4-fluorophenyl)thiazol-2-yl)(methyl)amino)imidazo[1,2-a]pyridin-6 yl)piperazin-1-yl)ethanone], 0.01 to 100 nM.
For the compound `CCc1nc2ccc(C3CCN(CC4CN(C)C(=O)O4)CC3)cn2c1N(C)c1nc(-c2ccc(F)cc2)cs1` (stereo not shown) [Compound 195, 5-((4-(2-ethyl-3-((4-(4-fluorophenyl)thiazol-2-yl)(methyl)amino)imidazo[1,2-a]pyridin-6-yl)piperidin-1-yl)methyl)-3-methyloxazolidin-2-one], the IC50 is above 1000 nM.
As to `CCc1nc2ccc(C3CCN(CC(=O)N(C)CCO)CC3)cn2c1N(C)c1nc(-c2ccc(F)cc2)cs1` [Compound 119, 2-(4-(2-ethyl-3-((4-(4-fluorophenyl)thiazol-2-yl)(methyl)amino)imidazo[1,2-a]pyridin-6-yl)piperidin-1-yl)-N-(2-hydroxyethyl)-N-methylacetamide], the 50% inhibitory concentration (IC50) is 500 to 1000 nM.
As to `CCc1nc2ccc(C3CCN(C[C@H]4CNC(=O)O4)CC3)cn2c1N(C)c1nc(-c2ccc(F)cc2)cs1` [Compound 196, (R)-5-((4-(2-ethyl-3-((4-(4-fluorophenyl)thiazol-2-yl)(methyl)amino)imidazo[1,2-a]pyridin-6-yl)piperidin-1-yl)methyl)oxazolidin-2-one], the IC50 is above 1000 nM.
In turn, `CCc1nc2ccc(C3CCN(C(=O)CN4CC(F)(F)C4)CC3)cn2c1N(C)c1nc(-c2ccc(F)cc2)cs1` [Compound 131] showed an IC50 of 100 to 500 nM.
With `CCc1nc2ccc(C3CCN(CC4COC(=O)N4)CC3)cn2c1N(C)c1nc(-c2ccc(F)cc2)cs1` (stereo not shown) [Compound 198, 4-((4-(2-ethyl-3-((4-(4-fluorophenyl)thiazol-2-yl)(methyl)amino)imidazo[1,2-a]pyridin-6-yl)piperidin-1-yl)methyl)oxazolidin-2-one], the IC50 is above 1000 nM.
Compound `CCc1nc2ccc(N3CCN(CC(=O)N4CC(F)(F)C4)CC3)cn2c1N(C)c1nc(-c2ccc(F)cc2C#N)cs1` [Compound 165, 2-(2-((6-(4-(2-(3,3-difluoroazetidin-1-yl)-2-oxoethyl)piperazin-1-yl)-2-ethylimidazo[1,2-a]pyridin-3-yl)(methyl)amino)thiazol-4-yl)-5-fluorobenzonitrile] showed a 50% inhibitory concentration (IC50) of 100 to 500 nM.
`CCc1nc2ccc(C3CCN(S(C)(=O)=O)CC3)cn2c1N(C)c1nc(-c2ccc(OC(F)(F)F)cc2)cs1` [Compound 85, N-(2-ethyl-6-(1-(methylsulfonyl)piperidin-4-yl)imidazo [1,2-a]pyridin-3-yl)-N-methyl-4-(4-(trifluoromethoxy)phenyl)thiazol-2-amine] registered an IC50 above 1000 nM.
In turn, `CCc1nc2ccc(C3CCN(CC(=O)NCCCO)CC3)cn2c1N(C)c1nc(-c2ccc(F)cc2)cs1` [Compound 123, 2-(4-(2-ethyl-3-((4-(4-fluorophenyl)thiazol-2-yl)(methyl)amino)imidazo[1,2-a]pyridin-6-yl)piperidin-1-yl)-N-(3-hydroxypropyl)acetamide] displayed an IC50 above 1000 nM.
For the compound `CCc1nc2ccc(C3CCN(CC(=O)N4CCC(O)C4)CC3)cn2c1N(C)c1nc(-c2ccc(F)cc2)cs1` (stereo not shown) [Compound 223, 2-(4-(2-ethyl-3-((4-(4-fluorophenyl)thiazol-2-yl)(methyl)amino)imidazo[1,2-a]pyridin-6-yl)piperidin-1-yl)-1-(3-hydroxypyrrolidin-1-yl)ethanone], the IC50 was in the range of 100 to 500 nM.
For `CCc1nc2ccc(N3CCN(C(=O)C4CCCN4C(=O)OC(C)(C)C)CC3)cn2c1N(C)c1nc(-c2ccc(F)cc2)cs1` (stereo not shown) [Compound 44, tert-butyl 2-(4-(2-ethyl-3-((4-(4-fluorophenyl)thiazol-2-yl)(methyl)amino)imidazo[1,2-a]pyridin-6-yl)piperazine-1-carbonyl)pyrrolidine-1-carboxylate] the value was above 1000 nM; for `CCc1nc2ccc(C3=CCN(CC(=O)N(C)C)CC3)cn2c1N(C)c1nc(-c2ccc(F)cc2)ns1` [Compound 190, 2-(4-(2-ethyl-3-((3-(4-fluorophenyl)-1,2,4-thiadiazol-5-yl)(methyl)amino)imidazo[1,2-a]pyridin-6-yl)-5,6-dihydropyridin-1(2H)-yl)-N,N-dimethylacetamide], above 1000 nM.
In the case of `CCc1nc2ccc(C3CCN(S(C)(=O)=O)CC3)cn2c1N(C)c1nc(-c2ccc(C(F)(F)F)cc2)c(CO)s1` [Compound 150, (2-((2-ethyl-6-(1-(methylsulfonyl)piperidin-4-yl)imidazo [1,2-a]pyridin-3-yl)(methyl)amino)-4-(4-(trifluoromethyl)phenyl)thiazol-5-yl) methanol], the IC50 was in the range of 500 to 1000 nM.
The same measure for `CCc1nc2ccc(C3CCN(S(C)(=O)=O)CC3)cn2c1N(C)c1nc(-c2ccc(F)c(F)c2)cs1` [Compound 83, 4-(3,4-difluorophenyl)-N-(2-ethyl-6-(1-(methylsulfonyl)piperidin-4-yl)imidazo [1,2-a]pyridin-3-yl)-N-methylthiazol-2-amine]: above 1000 nM; for `CN(C)C(=O)CN1CCC(c2ccc3nc(CCC(N)=O)c(N(C)c4nc(-c5ccc(F)cc5)cs4)n3c2)CC1` [Compound 176, 3-(6-(1-(2-(dimethylamino)-2-oxoethyl)piperidin-4-yl)-3-((4-(4-fluorophenyl)thiazol-2-yl)(methyl)amino)imidazo[1,2-a]pyridin-2-yl)propanamide]: above 1000 nM; for `CCc1nc2ccc(C3=CCN(S(C)(=O)=O)CC3)cn2c1N(C)c1nc(-c2ccc(C(F)(F)F)cc2)cs1` [Compound 193, N-(2-ethyl-6-(1-(methylsulfonyl)-1,2,3,6-tetrahydropyridin-4-yl)imidazo[1,2-a]pyridin-3-yl)-N-methyl-4-(4-(trifluoromethyl)phenyl) thiazol-2-amine]: above 1000 nM.
For `CCc1nc2ccc(C3CCN(C(=O)CCNC)CC3)cn2c1N(C)c1nc(-c2ccc(F)cc2)cs1` [Compound 132, 1-(4-(2-ethyl-3-((4-(4-fluorophenyl)thiazol-2-yl)(methyl)amino)imidazo[1,2-a]pyridin-6-yl)piperidin-1-yl)-3-(methylamino)propan-1-one] the value was above 1000 nM.
The same measure for `CCc1nc2ccc(N3CC(NCC(=O)N4CC(O)C4)C3)cn2c1N(C)c1nc(-c2ccc(F)cc2)cs1` [Compound 178, 2-(1-(2-ethyl-3-((4-(4-fluorophenyl)thiazol-2-yl)(methyl)amino)imidazo[1,2-a]pyridin-6-yl)azetidin-3-ylamino)-1-(3-hydroxyazetidin-1-yl)ethanone]: 100 to 500 nM.
